Counter-ions that a name gives are not always drawn. Like-named read-outs stand apart in the source and are kept apart here.
How the values were obtained:
HL60 cells [1] = assay: Differentiation of HL60 cells (Dif50); format: cell-based, human
From the text: The tested compounds and their respective results are produced in Table 1. Those skilled in the art will appreciate that combining the securinine and/or norsecurinine analogs with other differentiation inducing agents, such as all-trans retinoic acid, cytarabine and/or an anthracycline, would be of further benefit. Those skilled in the art will appreciate that inducing differentiation may further reduce oxidative damage due to lower presence of radical inducing enzymes (see, e.g., Yamada et al. J Biol Chem 259(5)3021-3025 (1984) and Weil et al., PNAS 84:2057-2061 (1987)).
(§1) The analogs were then tested and evaluated on the ability to affect differentiation and growth of HL60 cells.

SKOV3 P53+/+ = assay: Growth inhibition of ovary cancer SKOV3 P53+/+; format: cell-based; details: Homo sapiens, SK-OV-3, ovary cancer SKOV3 P53+/+
From the text: (§2) The analogs were then further tested for inhibiting growth against various cancer cell lines: AML (Mol3, OCI), Colon cancer (HCT116) and Ovary cancer (SKOV3). IC50 are documented in Table 2.

SKOV3 P53−/− = assay: Growth inhibition of ovary cancer SKOV3 P53−/−; format: cell-based; details: Homo sapiens, SK-OV-3, ovary cancer SKOV3 P53−/−
From the text: as §2

HCT116 P53−/− = assay: Growth inhibition of colon cancer HCT116 P53−/−; format: cell-based; details: Homo sapiens, HCT-116, colon cancer HCT116 P53−/−
From the text: as §2

HCT116 P53+/+ = assay: Growth inhibition of colon cancer HCT116 P53+/+; format: cell-based; details: Homo sapiens, HCT-116, colon cancer HCT116 P53+/+
From the text: as §2

HL60 cells [2] = assay: Growth of HL60 cells (IC50); format: cell-based, human; parameters: HL-60, Dif50/IC50 column: second value of 'x/y at 1.25 uM' (growth): unit not given here
Description: as §1

[3] = Homo sapiens, HL-60, HL-60 cells, differentiation, no unit in head or cell (other cells of the column print uM), read-out: HL-60, Dif50
[4] = Homo sapiens, HL-60, read-out: HL-60, Dif50, HL-60 cells, differentiation, no unit in head or cell (other cells of the column print uM)
[5] = Homo sapiens, HL-60, HL-60 cells, growth, no unit in head or cell (other cells of the column print uM), read-out: HL-60, IC50
[6] = read-out: HL-60, IC50, HL-60 cells, growth, no unit in head or cell (other cells of the column print uM)

SMILES | EC50 (HL60 cells [1]; [3]) | also measured
O=C1O[C@]23CC4OC4[C@H](ON4CCCC[C@@H]42)C32OC12 (stereo partly shown) [INVS-MG-77-aq] | – | EC50 (HL60 cells [1]; read-out: HL-60, Dif50, HL-60 cells, differentiation, no unit in head or cell (other cells of the column print uM)): > 30 µM
N#Cc1ccc(C#CC2=C[C@@H]3C[C@@]4(OC(=O)C=C24)[C@H]2CCCCN32)cc1 [INVS-MG-164B] | – | IC50 (SKOV3 P53+/+): 6.8 µM; IC50 (SKOV3 P53−/−): 4.2 µM; IC50 (HCT116 P53−/−): 6.4 µM; IC50 (HCT116 P53+/+): 5.2 µM
CC1CC2=CC(=O)O[C@@]23C[C@@H]1N1CCCC[C@@H]13 (stereo partly shown) [Sec-18 & Sec-20] | 20 to 30 µM | –
O=C1C=C2C[C@@H](SCC(F)(F)F)[C@@H]3C[C@@]2(O1)[C@H]1CCCCN31 [INVS-MG-5C] | 20 to 30 µM | –
O=C1C=C2C(c3cn(Cc4ccccc4)nn3)=C[C@@H]3C[C@@]2(O1)[C@H]1CCCCN31 [INVS-MG-209A] | – | IC50 (HL60 cells [2]; Homo sapiens, HL-60, HL-60 cells, growth, read-out: HL-60, IC50): < 10 µM; EC50 (HL60 cells [1]; Homo sapiens, HL-60, HL-60 cells, differentiation, read-out: HL-60, Dif50): < 10 µM
O=C1C=C2C(C#CC3C=CCCC3)=C[C@@H]3C[C@@]2(O1)[C@H]1CCCCN31 (stereo partly shown) [INVS-MG-160B] | – | HL-60, Dif50/IC50 column: second value of 'x/y at 1.25 uM' (growth) (HL60 cells [2]; HL-60 cells, at 1.25 uM): 40; HL-60, Dif50/IC50 column: first value of 'x/y at 1.25 uM' (differentiation) (HL60 cells [1]; HL-60 cells, at 1.25 uM): 50
COc1ccc(CN[C@@H]2CC3=CC(=O)O[C@@]34C[C@@H]2N2CCCC[C@@H]24)cc1 [INVS-MG-86C] | > 30 µM | –
CSC1CC2=CC(O)O[C@@]23C[C@@H]1N1CCCC[C@@H]13 (stereo partly shown) [Sec-8] | 10 to 15 µM | –
OC1C=C2CC(SCc3ccccc3)[C@@H]3C[C@@]2(O1)[C@H]1CCCCN31 (stereo partly shown) [Sec-2] | > 30 µM | –
O=C1C=C2CC(SC3CCCCC3)[C@@H]3C[C@@]2(O1)[C@H]1CCCCN31 (stereo partly shown) [INVS-MG-3B] | 15 to 20 µM | –
CC(C)CS[C@H]1CC2=CC(=O)O[C@@]23C[C@@H]1N1CCCC[C@@H]13 (stereo in doubt) [INVS-MG-55B & 57B = 37B] | 15 to 20 µM | –
O=C1O[C@]23CC4OC4[C@H](ON4CCCC[C@@H]42)C32OC12 (stereo partly shown) [INVS-MG-76-aq] | – | EC50 (HL60 cells [1]; [4]): > 30 µM
O=C1C=C2CC(N3CCN(c4ccc(Br)cc4)CC3)[C@@H]3C[C@@]2(O1)[C@H]1CCCCN31 (stereo partly shown) [Sec-11] | 15 to 20 µM | –
O=C1C=C2CC(S(=O)(=O)c3ccccc3)[C@@H]3C[C@@]2(O1)[C@H]1CCCCN31 (stereo partly shown) [INVS-MG-184B] | 5 to 7.5 µM | –
COC(OC)[C@H]1CCC2N1[C@@H]1C=CC3=CC(=O)O[C@@]32C1 (stereo partly shown) [INVG-Z-27-4 = INVS-MG-52D] | – | EC50 (HL60 cells [1]; [4]): 3.25 to 5 µM
O=C1C=C2[C@@H]3C=CC[C@@]2(O1)[C@H]1CCCCN1O3 [INVS-MG-74A] | > 30 µM | –
COc1ccc(SC2CC3=CC(O)O[C@@]34C[C@@H]2N2CCCC[C@@H]24)cc1 (stereo partly shown) [Sec-9] | 20 to 30 µM | –
O=C1C=C2C=CC3CC2(O1)C1=C(Br)CCCN13 (stereo not shown) [INV-SZ-118-2] | – | IC50 (HL60 cells [2]; Homo sapiens, HL-60, read-out: HL-60, IC50, HL-60 cells, growth, no unit in head or cell (other cells of the column print uM)): 0.31 to 0.62 µM
CCCCC1C(/C=C/c2ccc(OC)cc2)C2=CC(=O)O[C@@]23C[C@@H]1N1CCCC[C@@H]13 (stereo partly shown) [INVS-MG-163-IIB] | – | IC50 (HL60 cells [2]; [5]): < 10 µM
O=C1C=C2C(c3ccccc3)=C[C@@H]3C[C@@]2(O1)[C@H]1CCCCN31 [INVG-28-1 = INVS-MG-56B] | > 30 µM | –
O=C1C=C2C(I)=C[C@@H]3C[C@@]2(O1)[C@H]1CCCCN31 [INVS-MG-82 = 12A HCl salt] | – | IC50 (HL60 cells [2]; [6]): > 2.5 µM
O=C1C=C2CC([S+]([O-])c3ccccc3)[C@@H]3C[C@@]2(O1)[C@H]1CCCCN31 (stereo partly shown) [Sec-21] | 20 to 30 µM | –
NC1CC2=CC(=O)O[C@@]23C[C@@H]1N1CCCC[C@@H]13 (stereo partly shown) [INVS-MG-97-IIE] | 20 to 30 µM | –
CCN(CC)CCSC1CC2=CC(=O)O[C@@]23C[C@@H]1N1CCCC[C@@H]13 (stereo partly shown) [INVS-MG-60] | 15 to 20 µM | –
CC(C)CS[C@@H]1CC2=CC(=O)O[C@@]23C[C@@H]1N1CCCC[C@@H]13 (stereo in doubt) [INVS-MG-57A] | 20 to 30 µM | –
O=C1C=C2C(C#Cc3cccnc3)=C[C@@H]3C[C@@]2(O1)[C@H]1CCCCN31 [INVS-MG-144B] | – | IC50 (HL60 cells [2]; [5]): 0.31 to 0.625 µM
O=C1C=C2C(C#Cc3cc4ccccc4c4ccccc34)=C[C@@H]3C[C@@]2(O1)[C@H]1CCCCN31 [INVS-MG-158-V] | – | IC50 (HL60 cells [2]; [6]): < 5 µM
COC(OC)[C@@H]1CC[C@H]2N1[C@@H]1C=C(C#Cc3cc4ccccc4c4ccccc34)C3=CC(=O)O[C@@]32C1 [INVS-MG-220C] | – | IC50 (HL60 cells [2]; Homo sapiens, HL-60, read-out: HL-60, IC50, HL-60 cells, growth): > 5 µM
OC1C=C2CC(SC3CCCC3)[C@@H]3C[C@@]2(O1)[C@H]1CCCCN31 (stereo partly shown) [Sec-6] | 15 to 20 µM | –

Reference: patent US9827229B2, “Small molecule securinine and norsecurinine analogs and their use in cancers, inflammatory diseases and infections” (INVENIO THERAPEUTICS INC., priority 2013, dated 2017)
